A word on the AUC(0-t): it is the area under the concentration-time curve up to a stated or last time point. Low readings indicate low exposure, high ones high exposure. For orientation: Cmax means the highest concentration seen after dosing. What is called Tmax is the time from dosing to the highest level.

Drawing on patent US20220056014A1, “PHENYLPYRROLIDINE COMPOUND AND USE THEREOF” (WUHAN HUMANWELL INNOVATIVE DRUG RESEARCH AND DEVELOPMENT …, priority 2018, published 2022), this text covers AUC(0-t), Cmax and Tmax for 4 molecules.

The nature of data set [1]: Pharmacokinetic test in canine. In kind it is in vivo, beagle dogs. To be noted: male, beagle, dog, plasma, oral gavage 5 mg/kg. The protocol:
(§1) In the rat pharmacokinetic test, 3 male SD rats (180-240 g) were fasted overnight, and orally administered with 10 mg/kg of compound to be tested. Blood was collected before the administration, and 15 min, 30 min, 1 h, 2 h, 4 h, 8 h, and 24 h hours after the administration. The blood sample was centrifuged at 8000 rpm for 6 min at 4° C., and the plasma was collected and stored at −20° C. The plasma collected at each time point was added and mixed with 3-5 times the amount of acetonitrile solution containing an internal standard, vortexed for 1 min, centrifuged at 13,000 rpm for 10 min at 4° C. The supernatant was taken and mixed with 3 times the amount of water, and an appropriate amount of the mixture was taken for LC-MS/MS analysis. The main pharmacokinetic parameters were analyzed with WinNonlin 7.0 software non-compartmental model.
(§2) In the mouse pharmacokinetic test, 9 male CD-1 mice (20-25 g) were fasted overnight, and orally administered with 10 mg/kg of the compound to be tested. Bloods of 3 mice were collected at each time point, and bloods of 9 mice were alternately collected in total. In the pharmacokinetic test in canine, 3 male beagle dogs (8-10 kg) were fasted overnight, and orally administered with 5 mg/kg of the compound to be test. In the pharmacokinetic test of cynomolgus monkeys, 3 male cynomolgus monkeys (4 to 6.5 kg) were fasted overnight, and orally administered 20 mg/kg of the compound to be test. The remaining processes are the same as those of the rat pharmacokinetic test.

A short description of data set [2]: Pharmacokinetic test of cynomolgus monkeys. The settings on record: male, plasma; cynomolgus monkey, oral gavage 20 mg/kg. The class given is in vivo. The protocol:
as §1, §2

Regarding `COc1ccc([C@@H]2CN(C(=O)[C@@H](O)CO)C[C@@]2(C)[C@@H](C)O)cc1OC1CN(c2ncc(C)cc2F)C1` [Compound 004, (S)-1-((3S,4S)-4-(3-((1-(3-fluoro-5-methylpyridin-2-yl)azetidin-3-yl)oxy)-4-methoxyphenyl)-3-((R)-1-hydroxyethyl)-3-methylpyrrolidin-1-yl)-2,3-dihydroxypropan-1-one], in data set [1], the AUC(0-t) turned out to be 1740 ng·h/mL, the Cmax turned out to be 484 ng/mL and the Tmax amounted to 49.8 min.

In the case of `COc1ccc([C@@H]2CN(C(=O)[C@@H](O)CO)C[C@@]2(C)[C@@H](C)O)cc1OC1CN(c2ccc(C)c(C)n2)C1` [Compound 007, (S)-1-((3S,4S)-4-(3-((1-(5,6-dimethylpyridin-2-yl)azetidin-3-yl)oxy)-4-methoxyphenyl)-3-((R)-1-hydroxyethyl)-3-methylpyrrolidin-1-yl)-2,3-dihydroxypropan-1-one], in data set [2], the area under the curve AUC(0-t) was 44400 ng·h/mL, the highest level (Cmax) was 13800 ng/mL and the Tmax is 1.75 h. In data set [1], the AUC(0-t) worked out at 1690 ng·h/mL, the Cmax worked out at 689 ng/mL and the Tmax was determined as 15 min.

In the case of `COc1ccc([C@@H]2CN(C(=O)[C@@H](O)CO)C[C@@]2(C)[C@@H](C)O)cc1OC1CN(c2ccc(Cl)c(C)n2)C1` [Compound 011, (S)-1-((3S,4S)-4-(3-((1-(5-chloro-6-methylpyridin-2-yl)azetidin-3-yl)oxy)-4-methoxyphenyl)-3-((R)-1-hydroxyethyl)-3-methylpyrrolidin-1-yl)-2,3-dihydroxypropan-1-one], in data set [1], the AUC(0-t) was found to be 1420 ng·h/mL, the maximum concentration (Cmax) is 356 ng/mL and the Tmax came to 49.8 min.

`COc1ccc([C@@H]2CN(C(=O)[C@@H](O)CO)C[C@@]2(C)[C@@H](C)O)cc1OC1CN(c2ccc(C)cn2)C1` [Positive control compound, reference compound]: in data set [2], the AUC(0-t) turned out to be 3640 ng·h/mL, the Cmax came to 565 ng/mL and the Tmax is 1.5 h. Besides, in data set [1], the AUC(0-t) turned out to be 423 ng·h/mL, the concentration peaked (Cmax) at 159 ng/mL and the Tmax came out at 55.2 min.
